Where two headings read alike, the source gives them in different places.
Experiments:
[1] = system: rumen fluid; settings: formulated in DMSO, cited from earlier work
[2] = Bromoform in water; format: physicochemical; settings: deionised water
Method: Manufactured synthetic CHBr3, 98% purity, and stabilized with 2-methyl-2-butene (Sigma-Aldrich, product no: 241032) was used for the preparation of the four excipients. The Corn Oil, Molasses and Water were made with similar protocols as per the Canola Oil in Example 4. Briefly, CHBr3 was dissolved and homogenised into either retail corn oil, molasses, or deionised water and homogenised by repeated inversion and left to stabilise overnight prior to achieve a concentration of 3.0±0.10 mg/g. Cyclodextrin was prepared as described previously (patent WO 96/14062, PCT AU95/00733). Briefly, CHBr3 was added to α-cyclodextrin (Sigma-Aldrich, product no: 779008) aqueous solution and mixed overnight. The solid was then separated, washed, then dried. The CHBr3 concentration of the dried powder was determined and then diluted with additional α-cyclodextrin to adjust the CHBr3 concentration to 3.0±0.10 mg/g. TGP, CH4, H2 and CO2 production, IVDDM, and VFA were determined using the protocol as described in Example 4.

[3] = at 20 degrees; cited from earlier work
[4] = system: in vitro fermentation; settings: doses of 0.25, 1 and 1.5% of feed dry matter; cited from earlier work

For `BrC(Br)Br` [bromoform, tribromomethane], the “methane production in in vitro fermentation” value ([1]; 1 μM) is given as “does not significantly inhibit”, the “methane production in in vitro fermentation” value ([1]; doses of 5 μM, 10 μM and 25 μM) is given as “significantly inhibits” and the “concentration of bromoform prepared in water” value [2] is given as 3.0±0.10 mg bromoform per gram deionised water. For the same molecule, the solubility in water [3] was “less than 0.1 g bromofrm per 100 g water” and the methane production [4] was “no effect”.

From patent publication US20250170072A1, “NOVEL COMPOSITIONS FOR REDUCING METHANE PRODUCTION IN RUMINANT ANIMALS” (FUTUREFEED PTY LTD, priority 2022, published 2025)
